According to patent US20250134895A1, “METHODS AND COMPOSITIONS FOR TREATING ALPHA-SYNUCLEIN-MEDIATED NEURODEGENERATION” (UNIVERSITY HEALTH NETWORK, priority 2021, published 2025):

Tests used:
[1] = target: α-synuclein oligomers (Homo sapiens, UniProt P37840); assay: Venus YFP protein-fragment complementation assay in rat primary cortical neurons; type: cell-based; settings: 10 μM, 72 hours
Method: Specifically, adeno-associated viral vectors (AAV) were used to co-express human α-synuclein tagged with the N- or C-terminal half of Venus yellow fluorescent protein (YFP) in rat cortical neurons.
Pregnant Sprague Dawley rats (E17) were purchased from Charles River. Embryos were surgically removed, and neurons were harvested in a sterile environment. Neurons were plated on poly-D-lysine coated glass coverslips at a density of 5×10^5 cells per well in Neurobasal-A medium, (Gibco, 10888022) supplemented with B27 (2%) (Gibco, 17504044), antibiotic-antimycotic (1%) (Gibco, 15240062), and Glutamax (1%) (Gibco, 35050061). Fifty percent media changes were performed every 3 days. […] Two days post isolation, neurons were co-transduced with AAV-V1 S and AAV-SV2 or transduced with AAV-Venus alone at a MOI of 3,000. […] Concentrations were selected to avoid neuron toxicity according to previous reports.^57-61 Drug-containing media was removed, and cells were washed 1 time with ice-cold PBS before being fixed with 4% PFA (Sigma) at room temperature for 10 minutes. Levels of α-synuclein oligomers were measured by YFP fluorescence. […] YFP fluorescence intensity was analysed automatically using Imaris imaging software (Oxford Instruments). […]

[2] = tested on: transgenic A30P α-synuclein C. elegans; assay: Coiler score and locomotion of C. elegans expressing A30P α-synuclein in dopaminergic neurons; type: in vivo, Caenorhabditis elegans
Method: Using high-resolution, multi-worm tracking with custom image processing, methods were developed for semi-automated and blinded scoring of circularity for a population of simultaneously recorded animals (n=10 per recording). A coiler score was determined for the population tested by first calculating the circularity value for each animal in each frame of video and then calculating the proportion of circularity values >0.6. […] The coiler phenotype is an abnormal motor behaviour previously reported for several unc C. elegans strains with mutations affecting neuronal function.
Animals were synchronized by isolating eggs using alkaline hypochlorite treatment and hatching overnight. Larvae were plated onto NGM agar plates with OP50 and grown for 4 days before recording locomotion. For individual C. elegans recordings, a single adult animal was randomly picked, washed for 1 to 2 minutes in M9 buffer, and then transferred to a fresh NGM plate without food for imaging. Video images were acquired (2 frames per second) for up to 6 minutes using a sCMOS camera (pco.edge, PCO) mounted on a stereomicroscope (Olympus MVX10 MacroView) controlled using the μManager software.^55 A total of 40 individual animals were imaged for each strain. For C. elegans population recordings, ten adult animals were randomly removed using an eyelash pick, washed for 1 minute in M9 buffer, and then transferred to a fresh NGM plate without food, with a ring of copper sulfate solution (150 mM) around the area of recording (a chemorepellent to keep the animals in the recording frame). Exploratory locomotion was recorded using a CCD camera (GX1920, Allied Vision) which was attached to a dissecting stereomicroscope (Leica M165C, 1.0× PlanApo lens). A Labview program captured video (2 frames per second) at 1936×1456 resolution. Using ImageJ, the displacement, perimeter, and area of each animal was calculated, from which a circularity value was computed using the following formula: circularity=4π(A/P^2), where A is the area of the animal's body and P is the perimeter of the animal's body (both expressed in arbitrary pixel units). […] Using MATLAB (Mathworks), various behavioural metrics including the coiler score were calculated, which is the percentage of frames with a circularity value >0.6. Speed was automatically computed from the ImageJ based WrmTrk plugin as the distance travelled by each animal (in pixels) over the amount of time that it was tracked (in seconds).56 Average speed was determined by calculating the weighted average of each tracked animal's speed within a single population of animals. On the day of the recording for dopamine or raclopride treatment, adult animals were washed for 1 minute in M9 buffer, treated in a solution containing either drug for 1 minute, and then placed onto fresh NGM plates without food, with a copper sulfate solution ring around the area of recording. […] Drug plates were prepared by adding each drug to LB medium with OP50 before spreading onto fresh NGM plates. The solvent used to dissolve each drug was used as vehicle control for the drug treatment experiments (M9 buffer for dopamine, distilled water for raclopride, DMSO for all other drugs).
After 72 hours of drug treatment, animals were randomly picked, washed, and recorded. A total of ten worms were recorded per population, and twelve populations were recorded for each of the four treatment groups. Locomotion was recorded for each population over a total of 1800 frames over three minutes. The animal's movement speed, area, and perimeter were automatically analyzed as previously described. Coiler score was calculated automatically using a ratio of the animal's area to perimeter, where a higher coiler score would represent a greater degree of α-synuclein-induced dopaminergic neuron dysfunction in vivo.

[3] = tested on: HSP70; assay: HSP70 immunofluorescence in V1S-SV2 primary cortical rat neurons; type: cell-based; settings: 10 μM
Method: To investigate the mechanism underlying these drug effects, experiments were directed towards the potential involvement of molecular chaperone HSP70. HSP70 is known to play an essential role in suppressing α-synuclein aggregation, and in particular the inhibition of α-synuclein oligomer formation (Tao et al., 2020). To investigate the in silico predictions of HSP70 interactions with top drug candidates from the Cyclica proteome screening, fluorescence intensity was measured in V1 S-SV2 primary cortical rat neurons (FIGS. 15A and E) for potential effects on α-synuclein oligomers.
Pregnant Sprague Dawley rats (E17) were purchased from Charles River. […] Cells were washed three more times before being counter-stained with DAPI for 5 mins and mounted using ProLong Gold mounting medium for fluorescence (ThermoFisher). […] Fluorescence intensity was analysed automatically using Imaris imaging software (Oxford Instruments) by measuring the mean fluorescence intensity of each individual fluorescent neuron using the “surfaces” module. This module detects fluorescence above background threshold in each field of view, identifies a cell body and neuronal projections of each cell, and calculates the mean fluorescence intensity of each fluorescent cell within the field of view. […] The value generated for each neuron was normalized to the mean of fluorescence intensity of neurons treated with vehicle alone. […]

- YFP fluorescence compared with vehicle control [1]: significantly reduced
Structure (SMILES): Nc1nc(NC2CC2)c2ncn([C@H]3C=C[C@@H](CO)C3)c2n1 [Abacavir, abacavir]
- locomotor speed ([2]; 100 μM of drug): No significant differences
- effect on coiling / coiler score ([2]; 100 μM, 72 hr, vs DMSO vehicle): significantly reduced
- HSP70 fluorescence compared to vehicle control [3]: significantly increased
